The nature of series [1]: Cytotoxicity against human MT4 cells assessed as reduction in cell viability by CellTiter-Glo luminescence analysis. It counts as toxicity, cell-based. On the technique in general: Cellular ATP, detected with luciferase, serves as a proxy for viable cell number.
A short description of series [2]: Selectivity index, ratio of CC50 for human MT4 cells to IC50 for antiviral activity against HIV-1 NL4-3 infected in human MT4 cells. It counts as toxicity, cell-based. The following applies: read-out: Ratio CC50/IC50.
The test system of series [3] is Human immunodeficiency virus 1. As to the kind of experiment: Antiviral activity against HIV-1 NL4-3 infected in human MT4 cells assessed as inhibition of viral replication by Nano-Glo luciferase assay. As to conditions: Human immunodeficiency virus 1, NL4-3, MT4. The class given is functional, organism-based.

Take `CCCCCCCC(=O)O[C@@]12[C@H](OC(=O)c3ccccc3)[C@@H](C)[C@]3(O)[C@@H]4C=C(C)C(=O)[C@@]4(O)[C@H](O)C(CO)=C[C@H]3[C@@H]1C2(C)C`: the half-maximal cytotoxic concentration (CC50) (as a rule, the concentration giving 50% cytotoxicity) in series [1] is over 41 nM.
With `CCCCCCCC(=O)O[C@@]12[C@H](OC(=O)c3ccccc3)[C@@H](C)[C@@]3(O)[C@H]([C@@H]1C2(C)C)[C@@H](OO)C(CO)=C[C@]1(O)C(=O)C(C)=C[C@@H]31`, the selectivity ratio in series [2] was under 5.
Consider `C=C(C)[C@]12C[C@@H](COC(=O)c3ccccc3)[C@@]34OC5(O[C@@H]1[C@@H]3[C@@H]1O[C@]1(CO)[C@@H](O)[C@@]1(O)[C@H]4[C@H]([C@H](C)[C@@H]1OC(=O)c1ccccc1)[C@H](C)CCCCCC[C@H]5O)O2`, for which the IC50 (as a rule, the concentration that inhibits the measured activity by half) in series [3] turned out to be 0.07 nM. In addition, the cytotoxic concentration (CC50) in series [1] is over 5 nM.
The like results for `CCCCCCCC(=O)O[C@@]12[C@H](OC(=O)c3ccccc3)[C@@H](C)[C@@]3(O)C(=C[C@](O)(CO)C[C@]4(O)C(=O)C(C)=C[C@@H]34)[C@@H]1C2(C)C` were, in that order, over 41 nM and over 41 nM.
Consider `CCCCCCCC(=O)O[C@@]12[C@H](OC(=O)c3ccccc3)[C@@H](C)[C@@]3(O)[C@@H](C(=O)C(CO)=C[C@]4(O)C(=O)C(C)=C[C@@H]34)[C@@H]1C2(C)C`, for which the 50% cytotoxic concentration (CC50) in series [1] was over 41 nM.
With `CCCCCCCC(=O)O[C@@]12[C@H](OC(=O)c3ccccc3)[C@@H](C)[C@@]3(O)[C@H]([C@@H]1C2(C)C)[C@@H](O)C(CO)=C[C@]1(O)C(=O)C(C)=C[C@@H]31`, the IC50 in series [3] was over 41 nM. In series [1], the 50% cytotoxic concentration (CC50) is over 41 nM.
Take `CCCCCCCC(=O)O[C@@]12[C@H](OC(=O)c3ccccc3)[C@@H](C)[C@@]3(O)[C@@H](C=C(CO)C[C@]4(O)C(=O)C(C)=C[C@@H]34)[C@@H]1C2(C)C`: in series [3], the IC50 came to 0.18 nM. Moreover, in series [1], the 50% cytotoxic concentration (CC50) is over 41 nM.
The like results for `CCCCCCCC(=O)O[C@@]12C[C@@H](C)[C@@]3(O)[C@H]([C@@H]1C2(C)C)[C@@H](OO)C(CO)=C[C@]1(O)C(=O)C(C)=C[C@@H]31` were, in that order, over 41 nM and over 41 nM.
With `CCCCCCCC(=O)O[C@@]12C[C@@H](C)[C@@]3(O)[C@@H](C(=O)C(CO)=C[C@]4(O)C(=O)C(C)=C[C@@H]34)[C@@H]1C2(C)C`, the 50% inhibitory concentration (IC50) in series [3] is over 41 nM. Besides, in series [1], the CC50 is over 41 nM.

The record behind these values is ChEMBL document CHEMBL5120745, “LC-MS Identification, Isolation, and Structural Elucidation of Anti-HIV Tigliane Diterpenoids from Wikstroemia lamatsoensis” (J Nat Prod, 2021).
